In US7851474B2, “Dipiperazinyl ketones and related analogues” (Neurogen Corporation, priority 2005, dated 2010):
pKi: −log10 of the molar value. Like-named read-outs stand apart in the source and are kept apart here.

Target: T1, chimeric human H3 receptor (Homo sapiens, UniProt Q9Y5N1, E19D)
T1 construct: made in house; host or cells: Sf9 insect cells (baculovirus infection); P2 membrane preparation
Experiment: Chimeric human H3 receptor GTP binding assay (agonist-stimulated GTP-gamma35S binding, Example 7)
Format: biochemical
Outline: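 Sf9 membranes co-expressing the chimeric receptor and heterotrimeric G-protein subunits, 35 μg protein per tube, in pH 7.4 Tris buffer with 10 μM GDP. Test compounds at 10^−10 to 10^−6 M with 1 μM histamine, 60 min at room temperature. Filter-bound GTP-gamma^35S read by scintillation; IC50 from non-linear regression of dose-response curves.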

[1] = assay of Example 7, symbol * in column headed Ki of Table II, read-out: Ki
[2] = Table II, assay of Example 7, "*" in Ki, read-out: Ki
[3] = assay of Example 7, "*" in Ki of Table II, read-out: Ki
[4] = "*" in Ki of Table II, assay of Example 7, read-out: Ki
[5] = Table II "Ki", symbol "*": Ki in the assay of Example 7, read-out: Ki
[6] = Table II, "*" in Ki, assay of Example 7, read-out: Ki

T1 sequence (Q9Y5N1 with tags, fused parts or gaps E19D): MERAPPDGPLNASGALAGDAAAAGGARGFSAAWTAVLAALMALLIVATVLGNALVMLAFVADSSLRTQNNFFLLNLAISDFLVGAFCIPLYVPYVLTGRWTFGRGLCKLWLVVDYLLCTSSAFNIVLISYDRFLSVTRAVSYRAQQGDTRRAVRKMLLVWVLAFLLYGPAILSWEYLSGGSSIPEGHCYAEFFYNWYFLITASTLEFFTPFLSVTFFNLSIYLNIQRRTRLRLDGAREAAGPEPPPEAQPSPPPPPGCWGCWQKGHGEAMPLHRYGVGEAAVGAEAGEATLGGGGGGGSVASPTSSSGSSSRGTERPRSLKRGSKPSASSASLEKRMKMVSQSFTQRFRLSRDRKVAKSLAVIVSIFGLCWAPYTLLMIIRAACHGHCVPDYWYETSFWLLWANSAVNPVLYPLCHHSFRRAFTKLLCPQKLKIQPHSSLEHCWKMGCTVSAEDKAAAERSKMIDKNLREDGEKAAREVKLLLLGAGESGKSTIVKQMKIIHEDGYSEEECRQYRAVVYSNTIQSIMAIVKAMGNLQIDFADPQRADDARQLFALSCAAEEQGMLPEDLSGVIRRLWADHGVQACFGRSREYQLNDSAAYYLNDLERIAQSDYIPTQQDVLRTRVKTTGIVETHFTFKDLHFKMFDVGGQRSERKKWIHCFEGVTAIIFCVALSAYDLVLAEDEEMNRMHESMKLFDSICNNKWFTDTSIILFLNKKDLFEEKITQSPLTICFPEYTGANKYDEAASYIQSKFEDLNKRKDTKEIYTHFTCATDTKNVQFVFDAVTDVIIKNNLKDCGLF

CC(=O)c1ccc(N2CCN(CC(=O)N3CCN(C4CCC4)CC3C)CC2)cc1 (stereo not shown) [Compound 304, 1-(4-{4-[2-(4-cyclobutyl-2-methylpiperazin-1-yl)-2-oxoethyl]piperazin-1-yl}phenyl)ethanone] showed a pKi [1] of over 6.00.
Compound O=C(CN1CCN(c2cnc(-c3cc(F)ccc3F)cn2)CC1)N1CCN(C2CCC2)CC1 [Compound 960, 2-{4-[2-(4-cyclobutylpiperazin-1-yl)-2-oxoethyl]piperazin-1-yl}-5-(2,5-difluorophenyl)pyrazine] has a pKi [2] of over 6.00.
CCN1CCN(C(=O)CN2CCN(c3ccc(OC)cc3)CC2)CC1 [Compound 843, 1-ethyl-4-{[4-(4-methoxyphenyl)piperazin-1-yl]acetyl}piperazine] gave a pKi of over 6.00.
Work on N#Cc1ccc(N2CCN(CC(=O)N3CCN(C4CCC4)CC3)CC2)nn1 [Compound 1189, 6-{4-[2-(4-cyclobutylpiperazin-1-yl)-2-oxoethyl]piperazin-1-yl}pyridazine-3-carbonitrile] yielded a pKi [3] of over 6.00.
CCC(C)N1CCN(C(=O)CN2CCC(N3CCC(C)CC3)CC2)CC1 (stereo not shown) [Compound 448, 1′-[2-(4-sec-butylpiperazin-1-yl)-2-oxoethyl]-4-methyl-1,4-bipiperidine] gave a pKi [4] of over 6.00.
For O=C(CN1CCN(c2cnc(-c3cc(C(F)(F)F)cc(C(F)(F)F)c3)cn2)CC1)N1CCN(C2CCC2)CC1 [Compound 913, 2-[3,5-bis(trifluoromethyl)phenyl]-5-{4-[2-(4-cyclobutylpiperazin-1-yl)-2-oxoethyl]piperazin-1-yl}pyrazine], the pKi [5] was over 6.00.
CC1CN(c2ccc(C(F)(F)F)cn2)CCN1CC(=O)N1CCN(C(C)(C)C)CC1 (stereo not shown) [Compound 451, 1-[2-(4-tert-butylpiperazin-1-yl)-2-oxoethyl]-2-methyl-4-[5-(trifluoromethyl)pyridin-2-yl]piperazine] gave a pKi [4] of over 6.00.
CCC(C)N1CCN(C(=O)CN2CCN(c3cccc(C(F)(F)F)c3)CC2)CC1 (stereo not shown) [Compound 853, 1-sec-butyl-4-({4-[3-(trifluoromethyl)phenyl]piperazin-1-yl}acetyl)piperazine] showed a pKi [5] of over 6.00.
With CCCc1ccc(C(=O)NC2CCN(CC(=O)N3CCN(C4CCC4)CC3)CC2)cc1 [Compound 1218, N-{1-[2-(4-cyclobutylpiperazin-1-yl)-2-oxoethyl]piperidin-4-yl}-4-propylbenzamide] the pKi [3] was over 6.00.
O=C(CN1CCN(c2ccc(-c3ccc(OC(F)(F)F)cc3)nn2)CC1)N1CCN(C2CCC2)CC1 [Compound 1021, 3-{4-[2-(4-cyclobutylpiperazin-1-yl)-2-oxoethyl]piperazin-1-yl}-6-[4-(trifluoromethoxy)phenyl] pyridazine] showed a pKi [2] of over 6.00.
Compound COc1ccc(-c2ccc(N3CCN(CC(=O)N4CCN(C5CCC5)CC4)CC3)cc2)cc1F [Compound 750, 1-cyclobutyl-4-{[4-(3′-fluoro-4′-methoxybiphenyl-4-yl)piperazin-1-yl]acetyl}piperazine] has a pKi [6] of over 6.00.
CCC(C)N1CCN(C(=O)CN2CCN(c3ccc(C)cc3)CC2)CC1 (stereo not shown) [Compound 882, 1-sec-butyl-4-{[4-(4-methylphenyl)piperazin-1-yl]acetyl}piperazine] was tested, and the pKi [5] was over 6.00.
CC(C)N(C)C(=O)c1cccc(N2CCN(CC(=O)N3CCN(C4CCC4)CC3)CC2)c1 [Compound 1067, 3-{4-[2-(4-cyclobutylpiperazin-1-yl)-2-oxoethyl]piperazin-1-yl}-N-isopropyl-N-methylbenzamide] was tested, and the pKi [2] was over 6.00.
O=C1OCc2cc(N3CCN(CC(=O)N4CCN(C5CCCC5)CC4)CC3)ccc21 [Compound 1159, 5-{4-[2-(4-cyclopentylpiperazin-1-yl)-2-oxoethyl]piperazin-1-yl}-2-benzofuran-1(3H)-one] was tested, and the pKi [3] was over 6.00.
Work on CC(C)N1CN(c2ccccc2)C2(CCN(CC(=O)N3CCN(C4CCC4)CC3)CC2)C1=O [Compound 1191] yielded a pKi [3] of over 6.00.
Work on CC(=O)c1ccc(N2CCN(CC(=O)N3CCN(CC(C)C)CC3)CC2)cc1 [Compound 328, 1-(4-{4-[2-(4-isobutylpiperazin-1-yl)-2-oxoethyl]piperazin-1-yl}phenyl)ethanone] yielded a pKi [1] of over 6.00.
For CCN1CCN(C(=O)CN2CCN(c3ccc(Br)c(OC)c3)CC2)CC1 [Compound 335, 1-(4-bromo-3-methoxyphenyl)-4-[2-(4-ethylpiperazin-1-yl)-2-oxoethyl]piperazine], the pKi [1] was over 6.00.
O=C(CN1C=CC2(CC1)c1ccccc1C(=O)N2Cc1ccccc1)N1CCN(C2CCC2)CC1 (stereo not shown) [Compound 980, 2-benzyl-1′-[2-(4-cyclobutylpiperazin-1-yl)-2-oxoethyl]-2′,′3-dihydro-1′H-spiro[isoindole-1,4′-pyridin]-3(2H)-one] was tested, and the pKi [2] was over 6.00.
For COc1ccc(F)cc1-c1ccc(N2CCN(CC(=O)N3CCN(C4CCC4)CC3)CC2)nn1 [Compound 1045, 3-{4-[2-(4-cyclobutylpiperazin-1-yl)-2-oxoethyl]piperazin-1-yl}-6-(5-fluoro-2-methoxyphenyl) pyridazine], the pKi [2] was over 6.00.
In the case of CC(C)N1CCN(C(=O)CN2CCN(c3ccc(Cl)cc3)CC2)CC1 [Compound 360, 1-(4-chlorophenyl)-4-[2-(4-isopropylpiperazin-1-yl)-2-oxoethyl]piperazine], the pKi [1] was over 6.00.
With N#Cc1ccc(-c2cccc(N3CCN(CC(=O)N4CCN(C5CCC5)CC4)CC3)c2)cc1 [Compound 1065, 3′-{4-[2-(4-cyclobutylpiperazin-1-yl)-2-oxoethyl]piperazin-1-yl}biphenyl-4-carbonitrile] the pKi [2] was over 6.00.
O=C(CN1CCN(c2cnc(-c3ccc4c(c3)OCO4)cn2)CC1)N1CCN(C2CCC2)CC1 [Compound 896, 2-(1,3-benzodioxol-5-yl)-5-{4-[2-(4-cyclobutylpiperazin-1-yl)-2-oxoethyl]piperazin-1-yl}pyrazine] showed a pKi [5] of over 6.00.
CC(O)c1ccc(N2CC3CC2CN3CC(=O)N2CCN(C3CCC3)CC2)cc1 (stereo not shown) [Compound 331, 1-(4-{5-[2-(4-cyclobutylpiperazin-1-yl)-2-oxoethyl]-2,5-diazabicyclo[2.2.1]hept-2-yl}phenyl)ethanol] showed a pKi [1] of over 6.00.
In the case of O=C(CN1CCN(c2ccc(C(F)(F)F)cc2)CC1)N1CCN(C2CCCC2)CC1 [Compound 829, 1-cyclopentyl-4-({4-[4-(trifluoromethyl)phenyl]-1-piperazinyl}acetyl) piperazine], the pKi [5] was over 6.00.
For CC(C)NC(=O)c1cccc(N2CCN(CC(=O)N3CCN(C4CCC4)CC3)CC2)c1 [Compound 1080, 3-{4-[2-(4-cyclobutylpiperazin-1-yl)-2-oxoethyl]piperazin-1-yl}-N-isopropylbenzamide], the pKi [2] was over 6.00.
Compound CCCCNC(=O)c1ccc(N2CCN(CC(=O)N3CCN(C4CCC4)CC3)CC2)cc1 [Compound 1264, N-butyl-4-{4-[2-(4-cyclobutylpiperazin-1-yl)-2-oxoethyl]piperazin-1-yl}benzamide] has a pKi [3] of over 6.00.
Compound COc1ccc(C)cc1-c1cnc(N2CCN(CC(=O)N3CCN(C4CCC4)CC3)CC2)cn1 [Compound 958, 2-{4-[2-(4-cyclobutylpiperazin-1-yl)-2-oxoethyl]piperazin-1-yl}-5-(2-methoxy-5-methylphenyl)pyrazine] has a pKi [2] of over 6.00.
Cc1cc(C)c(-c2ccc(N3CCN(CC(=O)N4CCN(C5CCC5)CC4)CC3)nn2)c(C)c1 [Compound 1061, 3-{4-[2-(4-cyclobutylpiperazin-1-yl)-2-oxoethyl]piperazin-1-yl}-6-mesitylpyridazine] was tested, and the pKi [2] was over 6.00.
Work on O=C(CN1CCN(c2ccc(-c3ccccc3Oc3ccccc3)nn2)CC1)N1CCN(C2CCC2)CC1 [Compound 1047, 3-{4-[2-(4-cyclobutylpiperazin-1-yl)-2-oxoethyl]piperazin-1-yl}-6-(2-phenoxyphenyl) pyridazine] yielded a pKi [2] of over 6.00.
For O=C(CN1CCN(c2cnc(-c3ccccc3Oc3ccccc3)cn2)CC1)N1CCN(C2CCC2)CC1 [Compound 959, 2-{4-[2-(4-cyclobutylpiperazin-1-yl)-2-oxoethyl]piperazin-1-yl}-5-(2-phenoxyphenyl)pyrazine], the pKi [2] was over 6.00.
Compound COc1ccc(N2CCN(CC(=O)N3CCN(C4CCC4)CC3)CC2)nn1 [Compound 999, 3-{4-[2-(4-cyclobutylpiperazin-1-yl)-2-oxoethyl]piperazin-1-yl}-6-methoxypyridazine] has a pKi [2] of over 6.00.
With O=C(c1ccc(N2CCN(CC(=O)N3CCN(C4CCC4)CC3)CC2)cc1)C1CC1 [Compound 249, (4-{4-[2-(4-cyclobutylpiperazin-1-yl)-2-oxoethyl]piperazin-1-yl}phenyl)(cyclopropyl) methanone] the pKi [1] was over 6.00.
O=C(CN1CCN(c2ccc(F)c(C(F)(F)F)c2)CC1)N1CCN(C2CCC2)CC1 [Compound 607, 1-cyclobutyl-4-({4-[4-fluoro-3-(trifluoromethyl)phenyl]piperazin-1-yl}acetyl)piperazine] was tested, and the pKi [6] was over 6.00.
O=C(CN1CCN(c2ccc(-c3ccc(Cl)cc3Cl)cc2)CC1)N1CCN(C2CCC2)CC1 [Compound 675, 1-cyclobutyl-4-{[4-(2′,4′-dichlorobiphenyl-4-yl)piperazin-1-yl]acetyl}piperazine] was tested, and the pKi [6] was over 6.00.
CC(C)C(=O)c1ccc(N2CCN(CC(=O)N3CCN(C4CCC4)CC3)CC2)cc1 [Compound 313, 1-(4-{4-[2-(4-cyclobutylpiperazin-1-yl)-2-oxoethyl]piperazin-1-yl}phenyl)-2-methylpropan-1-one] showed a pKi [1] of over 6.00.
Compound CCCCCNC(=O)c1ccc(N2CCN(CC(=O)N3CCN(C4CCC4)CC3)CC2)nc1 [Compound 1178, 6-{4-[2-(4-cyclobutylpiperazin-1-yl)-2-oxoethyl]piperazin-1-yl}-N-pentylnicotinamide] has a pKi [3] of over 6.00.
In the case of COc1cc(-c2ccc(N3CCN(CC(=O)N4CCN(C5CCC5)CC4)CC3)nn2)cc(OC)c1OC [Compound 1031, 3-{4-[2-(4-cyclobutylpiperazin-1-yl)-2-oxoethyl]paperazin-1-yl}-6-(3,4,5-trimethoxyphenyl) pyridazine], the pKi [2] was over 6.00.
